In patent US20040197407A1, “Methods and dosage forms with modified layer geometry” (priority 2003, published 2004):
Counter-ions that a name gives are not always drawn.

Assays:
[1] = cited from earlier work
[2] = FIG. 6
Source text: FIG. 6 illustrates blood plasma concentrations at various times achieved through various means of delivery. This figure illustrates the time necessary to achieve a particular blood plasma concentration.

[3] = in vivo; cited from earlier work
[4] = in vivo; cited from earlier work; remark: listed apart in the source

colonic absorption [2] | SMILES | solubility in alcohol ([1]; alcohol) | solubility in hydrocarbon solvents ([1]; hydrocarbon solvents) | solubility in isopropanol ([1]; isopropanol) | solubility in water ([1]; water) | reported side effects [3] | half-life [4]
 | CN(C)CCC=C1c2ccccc2C=Cc2ccccc21 [Cyclobenzaprine hydrochloride, cyclobenzaprine hydrochloride] | freely soluble | insoluble | sparingly soluble | freely soluble |  | 
colonic absorption | CN(C)CCC=C1c2ccccc2C=Cc2ccccc21 [cyclobenzaprine] |  |  |  |  | sedation and dry mouth | 24 to 72 h
